Source: patent publication US20180016593A1, “HERBICIDE-RESISTANT SUNFLOWER PLANTS, POLYNUCLEOTIDES ENCODING HERBICIDE-RESISTANT ACETOHYDROXYACID SYNTHASE LARGE SUBUNIT PROTEINS, AND METHODS OF USE” (priority 2005, published 2018)
Several values for one entry are separate records, joined by “and”; a condition that tells them apart may be missing. Identical values can stand only once. Like-named read-outs stand apart in the source and are kept apart here.

Legend:
[1] = test system: sunflower lines carrying the A122T mutation; type: in vivo, Helianthus annuus; conditions: 14 DAT; for biomass accumulation, Mean / plant height, Mean / root dry weight, Mean: six A122T genotypes; for Phytotoxicity Index, Mean: three A122T genotypes
Description: (§1) A greenhouse study was conducted to quantify and contrast the imazapir sensivity of the mutants A122T and A205V in different genetic backgrounds at the whole plant level in sunflower. Seeds of the different sunflower lines that were used in this study were obtained under field conditions.
(§2) Seeds were sown in Petri dishes and, after germination, plantlets were transplanted to pots of 10 cm of diameter in a potting media consisting of equal parts of vermiculite, soil and sand. Plants were grown in a greenhouse under natural light conditions supplemented with 400 W sodium halide lamps to provide a 16 hrs daylength. Day/night temperatures were 25 and 20° C., respectively. At the V2 stage 10 plants of each genotype were randomly assigned to each treatment consisting of […] imazapir doses (0, 40, 80, 160, 240, 320, 400 and 480 g ai/ha), and a zero-time biomass determination. Experiment was arranged as a randomized block design with a full factorial (sunflower line×treatment) arrangement of treatments and 10 replications.
(§3) On the day of herbicide application ten plants of each genotype were cut at the cotyledonal node and dried at 60° C. for 48 hrs zero-time for dried weight determination.
(§4) Height was determined as the distance between the cotyledonal node and the apex of each plant. For root biomass determination, each plant was taken from the pot and the potting media was washed out from the roots. Above ground biomass data from each line were converted to biomass accumulation after application by subtracting the appropriate average zero-time biomass from each sample. Dry biomass data were converted to percentages of the untreated control plants within each line to allow direct comparisons between groups. […]

[2] = test system: sunflower lines carrying the A205V mutation; type: in vivo, Helianthus annuus; conditions: 14 DAT; for biomass accumulation, Dif with Control / plant height, Dif with Control / root dry weight, Dif with Control: A205V mean; for biomass accumulation, Mean / root dry weight, Mean / plant height, Mean: six A205V genotypes; for Phytotoxicity Index, Mean: three A205V genotypes
Description: as §1, §2, §3, §4

Which “biomass accumulation, Mean” value ([1]; 4x (320 g ai/ha)) does the source give for `CC(C)C1(C)N=C(c2ncccc2C(=O)O)NC1=O` (stereo not shown) [imazapyr] here?
Its value is 87.8 % of untreated plots.

And the “plant height, Mean” value ([1]; 4x (320 g ai/ha))?
The value was 93.7 % of untreated plots.

What about the “root dry weight, Mean” value ([1]; 4x (320 g ai/ha)) of the same compound?
The value was 81.4 % of untreated plots.

What about the “biomass accumulation, Mean” value ([1]; 5x (400 g ai/ha)) of the same compound?
Its value is 79.3 % of untreated plots.

And the “plant height, Mean” value ([1]; 5x (400 g ai/ha))?
Its value is 89.8 % of untreated plots.

And the “root dry weight, Mean” value ([1]; 5x (400 g ai/ha))?
Its value is 78.7 % of untreated plots.

And the “biomass accumulation, Mean” value ([1]; 6x (480 g ai/ha))?
Its value is 74.6 % of untreated plots.

What about the “plant height, Mean” value ([1]; 6x (480 g ai/ha)) of the same compound?
The value was 84.2 % of untreated plots.

And the “root dry weight, Mean” value ([1]; 6x (480 g ai/ha))?
Its value is 61.7 % of untreated plots.

And the “Phytotoxicity Index, Mean” value ([1]; 0.5x (40 g ai/ha))?
Its value is 0.3.

And the “Phytotoxicity Index, Mean” value ([1]; 1x (80 g ai/ha))?
Its value is 0.3.

And the “Phytotoxicity Index, Mean” value ([1]; 2x (160 g ai/ha))?
Its value is 0.3.

What about the “Phytotoxicity Index, Mean” value ([1]; 3x (240 g ai/ha)) of the same compound?
The value was 0.3.

And the “Phytotoxicity Index, Mean” value ([1]; 4x (320 g ai/ha))?
The value was 0.5.

And the “Phytotoxicity Index, Mean” value ([1]; 5x (400 g ai/ha))?
Its value is 0.8.

And the “Phytotoxicity Index, Mean” value ([1]; 6x (480 g ai/ha))?
Its value is 1.2.

What about the “biomass accumulation, Dif with Control” value ([2]; 0.5x (40 g ai/ha)) of the same compound?
Its value is 5.5 % of untreated plots.

And the “plant height, Dif with Control” value ([2]; 0.5x (40 g ai/ha))?
The value was 5.6 % of untreated plots.

What about the “root dry weight, Dif with Control” value ([2]; 0.5x (40 g ai/ha)) of the same compound?
The value was 12.8 % of untreated plots.

What about the “biomass accumulation, Dif with Control” value ([2]; 1x (80 g ai/ha)) of the same compound?
Its value is 17.8 % of untreated plots.

What about the “plant height, Dif with Control” value ([2]; 1x (80 g ai/ha)) of the same compound?
The value was 10.8 % of untreated plots.

And the “root dry weight, Dif with Control” value ([2]; 1x (80 g ai/ha))?
Its value is 29.2 % of untreated plots.

What about the “biomass accumulation, Dif with Control” value ([2]; 2x (160 g ai/ha)) of the same compound?
The value was 38.4 % of untreated plots.

What about the “plant height, Dif with Control” value ([2]; 2x (160 g ai/ha)) of the same compound?
The value was 30.8 % of untreated plots.

What about the “root dry weight, Dif with Control” value ([2]; 2x (160 g ai/ha)) of the same compound?
The value was 49.4 % of untreated plots.

And the “biomass accumulation, Dif with Control” value ([2]; 3x (240 g ai/ha))?
The value was 52.4 % of untreated plots.

What about the “plant height, Dif with Control” value ([2]; 3x (240 g ai/ha)) of the same compound?
Its value is 49.6 % of untreated plots.

What about the “root dry weight, Dif with Control” value ([2]; 3x (240 g ai/ha)) of the same compound?
The value was 60.8 % of untreated plots.

What about the “biomass accumulation, Dif with Control” value ([2]; 4x (320 g ai/ha)) of the same compound?
Its value is 64.6 % of untreated plots.

And the “plant height, Dif with Control” value ([2]; 4x (320 g ai/ha))?
Its value is 66.3 % of untreated plots.

What about the “root dry weight, Dif with Control” value ([2]; 4x (320 g ai/ha)) of the same compound?
The value was 68.9 % of untreated plots.

What about the “biomass accumulation, Dif with Control” value ([2]; 5x (400 g ai/ha)) of the same compound?
The value was 67.6 % of untreated plots.

And the “plant height, Dif with Control” value ([2]; 5x (400 g ai/ha))?
The value was 68.0 % of untreated plots.

What about the “root dry weight, Dif with Control” value ([2]; 5x (400 g ai/ha)) of the same compound?
Its value is 69.3 % of untreated plots.

What about the “biomass accumulation, Dif with Control” value ([2]; 6x (480 g ai/ha)) of the same compound?
Its value is 70.0 % of untreated plots.

And the “root dry weight, Dif with Control” value ([2]; 6x (480 g ai/ha))?
Its value is 75.6 % of untreated plots.

What about the “plant height, Dif with Control” value ([2]; 6x (480 g ai/ha), listed as imazapir) of the same compound?
The value was 68.9 % of untreated plots and 69.8 % of untreated plots.

And the “biomass accumulation, Mean” value ([2]; 0.5x (40 g ai/ha))?
Its value is 94.5 % of untreated plots.

What about the “root dry weight, Mean” value ([2]; 0.5x (40 g ai/ha)) of the same compound?
Its value is 87.2 % of untreated plots.

What about the “biomass accumulation, Mean” value ([2]; 1x (80 g ai/ha)) of the same compound?
Its value is 82.2 % of untreated plots.

What about the “root dry weight, Mean” value ([2]; 1x (80 g ai/ha)) of the same compound?
The value was 70.8 % of untreated plots.

What about the “biomass accumulation, Mean” value ([2]; 2x (160 g ai/ha)) of the same compound?
Its value is 61.6 % of untreated plots.

What about the “plant height, Mean” value ([2]; 2x (160 g ai/ha)) of the same compound?
Its value is 69.2 % of untreated plots.

And the “root dry weight, Mean” value ([2]; 2x (160 g ai/ha))?
Its value is 50.6 % of untreated plots.

And the “biomass accumulation, Mean” value ([2]; 3x (240 g ai/ha))?
The value was 47.6 % of untreated plots.

What about the “plant height, Mean” value ([2]; 3x (240 g ai/ha)) of the same compound?
Its value is 50.4 % of untreated plots.

And the “root dry weight, Mean” value ([2]; 3x (240 g ai/ha))?
Its value is 39.2 % of untreated plots.

What about the “biomass accumulation, Mean” value ([2]; 4x (320 g ai/ha)) of the same compound?
The value was 35.4 % of untreated plots.

What about the “plant height, Mean” value ([2]; 4x (320 g ai/ha)) of the same compound?
Its value is 33.7 % of untreated plots.

What about the “root dry weight, Mean” value ([2]; 4x (320 g ai/ha)) of the same compound?
Its value is 31.1 % of untreated plots.

What about the “biomass accumulation, Mean” value ([2]; 5x (400 g ai/ha)) of the same compound?
Its value is 32.4 % of untreated plots.

What about the “plant height, Mean” value ([2]; 5x (400 g ai/ha)) of the same compound?
The value was 32.0 % of untreated plots.

What about the “root dry weight, Mean” value ([2]; 5x (400 g ai/ha)) of the same compound?
Its value is 30.7 % of untreated plots.

What about the “biomass accumulation, Mean” value ([2]; 6x (480 g ai/ha)) of the same compound?
Its value is 30.0 % of untreated plots.

What about the “plant height, Mean” value ([2]; 6x (480 g ai/ha)) of the same compound?
Its value is 30.2 % of untreated plots.

What about the “root dry weight, Mean” value ([2]; 6x (480 g ai/ha)) of the same compound?
Its value is 24.4 % of untreated plots.

And the “Phytotoxicity Index, Mean” value ([2]; 2x (160 g ai/ha))?
The value was 2.2.

And the “Phytotoxicity Index, Mean” value ([2]; 3x (240 g ai/ha))?
Its value is 5.1.

What about the “Phytotoxicity Index, Mean” value ([2]; 4x (320 g ai/ha)) of the same compound?
The value was 7.4.

What about the “Phytotoxicity Index, Mean” value ([2]; 5x (400 g ai/ha)) of the same compound?
Its value is 8.2.

And the “Phytotoxicity Index, Mean” value ([2]; 6x (480 g ai/ha))?
Its value is 8.2.
